Experiments:
[1] = molecular target: T1, Short transient receptor potential channel 5 (Homo sapiens, UniProt Q9UL62); assay: Antagonist activity at human TRPC5 stably expressed in HEK293 cells inhibition of calcium influx by calcium fluorescence assay; type: cell-based
T1 sequence (Q9UL62 whole entry): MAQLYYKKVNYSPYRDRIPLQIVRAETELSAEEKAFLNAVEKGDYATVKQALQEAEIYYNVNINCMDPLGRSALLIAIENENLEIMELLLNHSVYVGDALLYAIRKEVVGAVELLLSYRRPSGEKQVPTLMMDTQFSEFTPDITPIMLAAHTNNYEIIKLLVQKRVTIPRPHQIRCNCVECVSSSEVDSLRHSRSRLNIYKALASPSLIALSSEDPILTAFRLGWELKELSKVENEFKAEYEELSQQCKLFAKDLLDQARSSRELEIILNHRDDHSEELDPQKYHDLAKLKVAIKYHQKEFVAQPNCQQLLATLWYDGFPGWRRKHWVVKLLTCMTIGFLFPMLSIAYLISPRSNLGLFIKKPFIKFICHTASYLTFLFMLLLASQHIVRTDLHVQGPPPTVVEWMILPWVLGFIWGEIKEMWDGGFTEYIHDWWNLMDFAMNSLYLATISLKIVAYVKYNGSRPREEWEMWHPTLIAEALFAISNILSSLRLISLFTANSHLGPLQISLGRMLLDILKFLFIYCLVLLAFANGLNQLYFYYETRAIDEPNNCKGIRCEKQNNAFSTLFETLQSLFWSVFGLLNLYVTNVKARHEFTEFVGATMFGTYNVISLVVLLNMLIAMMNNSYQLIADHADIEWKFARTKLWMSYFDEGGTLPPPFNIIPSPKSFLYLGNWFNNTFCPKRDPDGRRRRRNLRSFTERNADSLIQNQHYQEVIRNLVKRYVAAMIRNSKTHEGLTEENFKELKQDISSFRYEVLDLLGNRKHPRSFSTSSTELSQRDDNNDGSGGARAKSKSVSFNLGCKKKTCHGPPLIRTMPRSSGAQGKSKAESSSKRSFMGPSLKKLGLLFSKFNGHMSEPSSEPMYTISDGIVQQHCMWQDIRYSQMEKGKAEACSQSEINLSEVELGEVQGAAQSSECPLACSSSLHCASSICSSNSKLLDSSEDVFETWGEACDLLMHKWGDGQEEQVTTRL

[2] = molecular target: T2, Short transient receptor potential channel 6 (Mus musculus, UniProt Q61143); assay: Antagonist activity at mouse TRPC6 stably expressed in HEK293 cells inhibition of calcium influx by calcium fluorescence assay; type: cell-based
T2 sequence (Q61143 whole entry): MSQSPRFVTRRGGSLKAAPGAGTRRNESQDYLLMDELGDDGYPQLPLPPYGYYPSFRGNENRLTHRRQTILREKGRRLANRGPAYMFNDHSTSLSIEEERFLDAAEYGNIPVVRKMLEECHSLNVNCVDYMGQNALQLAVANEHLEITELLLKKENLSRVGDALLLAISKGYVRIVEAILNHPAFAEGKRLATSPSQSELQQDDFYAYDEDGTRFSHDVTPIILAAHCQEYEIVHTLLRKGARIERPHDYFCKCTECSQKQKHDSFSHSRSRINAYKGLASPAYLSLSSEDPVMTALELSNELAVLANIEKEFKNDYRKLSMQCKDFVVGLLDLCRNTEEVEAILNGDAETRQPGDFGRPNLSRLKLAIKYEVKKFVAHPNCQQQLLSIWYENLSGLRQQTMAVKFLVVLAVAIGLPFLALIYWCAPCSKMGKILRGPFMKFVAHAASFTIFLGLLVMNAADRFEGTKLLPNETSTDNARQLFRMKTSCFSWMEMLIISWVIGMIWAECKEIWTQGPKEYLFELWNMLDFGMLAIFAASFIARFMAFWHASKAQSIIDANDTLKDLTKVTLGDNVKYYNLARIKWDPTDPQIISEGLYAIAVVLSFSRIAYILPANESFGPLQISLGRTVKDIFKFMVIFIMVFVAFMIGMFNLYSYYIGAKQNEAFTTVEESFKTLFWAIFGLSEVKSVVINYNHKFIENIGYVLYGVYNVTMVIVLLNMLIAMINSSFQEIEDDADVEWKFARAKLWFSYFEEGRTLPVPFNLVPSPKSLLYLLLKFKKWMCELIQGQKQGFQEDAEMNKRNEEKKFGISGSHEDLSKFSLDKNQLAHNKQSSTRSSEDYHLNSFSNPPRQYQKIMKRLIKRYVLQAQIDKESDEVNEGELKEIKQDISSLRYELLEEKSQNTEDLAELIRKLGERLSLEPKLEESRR

MKN-45 = assay: Antiproliferative activity against human MKN-45 cells assessed as reduction in cell viability incubated for 72 hrs by MTT assay; type: functional, cell-based; conditions: MKN-45, 72 h
HCT-116 = assay: Antiproliferative activity against human HCT-116 cells assessed as reduction in cell viability incubated for 72 hrs by MTT assay; type: functional, cell-based; conditions: HCT-116, 72 h
[3] = Terminal half life in BALB/c mouse at 12.5 mg/kg, ip administered as liposome encapsulated form and measured upto 24 hrs by LC-MS/MS analysis; type: ADME, organism-based; conditions: in vivo, read-out: beta t1/2 (converted)
[4] = Apparent clearance in BALB/c mouse at 12.5 mg/kg, ip administered as liposome encapsulated form and measured upto 24 hrs by LC-MS/MS analysis; type: ADME, organism-based; conditions: in vivo, read-out: CL(app) (converted)
[5] = Apparent clearance in BALB/c mouse at 25 mg/kg, ip administered as liposome encapsulated form and measured upto 24 hrs by LC-MS/MS analysis; type: ADME, organism-based; conditions: in vivo, read-out: CL(app) (converted)
[6] = AUC (0 to t) in BALB/c mouse at 12.5 mg/kg, ip administered as liposome encapsulated form and measured upto 24 hrs by LC-MS/MS analysis; type: ADME, organism-based; conditions: in vivo
[7] = AUC (0 to t) in BALB/c mouse at 25 mg/kg, ip administered as liposome encapsulated form and measured upto 24 hrs by LC-MS/MS analysis; type: ADME, organism-based; conditions: in vivo
[8] = AUC (0 to infinity) in BALB/c mouse at 25 mg/kg, ip administered as liposome encapsulated form and measured upto 24 hrs by LC-MS/MS analysis; type: ADME, organism-based; conditions: in vivo
[9] = Toxicity against BALB/c nude mouse xenografted with human U87 cells assessed as mortality at 12.5 to 50 mg/kg/day administered as liposome encapsulated form for 15 days; type: organism-based, U-87MG ATCC; conditions: in vivo, 360 h, dose 12.5-50 mg/kg/day, time 15 day
[10] = Cmax in BALB/c mouse at 25 mg/kg, ip administered as liposome encapsulated form and measured upto 24 hrs by LC-MS/MS analysis; type: ADME, organism-based; conditions: in vivo
[11] = Cmax in BALB/c mouse at 50 mg/kg, ip administered as liposome encapsulated form and measured upto 24 hrs by LC-MS/MS analysis; type: ADME, organism-based; conditions: in vivo
[12] = Selectivity index, ratio of IC50 for human MKN-45 cells to IC50 for human U87 cells; type: functional
[13] = Selectivity index, ratio of IC50 for human HCT-116 cells to IC50 for human U87 cells; type: functional
[14] = Selectivity index, ratio of IC50 for human A549 cells to IC50 for human U87 cells; type: functional

Compound: NCCN(Cc1ccc2ccccc2c1)c1nc(C(=O)Nc2ccc(O)cc2)cs1
- IC50 [1]: 7.6 µM
- IC50 [2]: 2.9 µM
- IC50 (MKN-45): 11 µM
- IC50 (HCT-116): 9.8 µM
- half-life [3]: 6.8 h
- CL/F [4]: 74.6 mL/min/kg
- CL/F [5]: 60.2 mL/min/kg
- AUC(0-t) at 24 h [6]: 2550 ng·h/mL
- AUC(0-t) at 24 h [7]: 6840 ng·h/mL
- AUC(0-inf) [8]: 6920 ng·h/mL
- Activity [9]: Non-Toxic
- Cmax [10]: 1220 ng/mL
- Cmax [11]: 2910 ng/mL
- Ratio IC50 [12]: 2
- Ratio IC50 [13]: 2
- Ratio IC50 [14]: 2

From ChEMBL document CHEMBL5518193, “Discovery of N-alkyl-N-benzyl thiazoles as novel TRPC antagonists for the treatment of glioblastoma multiforme” (Eur J Med Chem, 2024)
